Values joined by “and” are separate entries in the source; they are usually repeats but may differ in a detail not shown here. Equal values may be shown once. Inconclusive results and toxic doses are left out. The calls were made as follows: active = survival T/C of 150% or more; inactive = T/C below 125% in these data.
Test system: P388 leukemia ip, CD2F1 mice, survival T/C
Assay: NCI In Vivo Anticancer Drug Screen. Data for tumor model P388 Leukemia (intraperitoneal) in CD2F1 (CDF1) mice
Settings: endpoint: median survival time, higher = longer survival
In short: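 Mice carrying the transplanted tumor received test compound or vehicle. Survival was recorded in each group, and the value is the treated-group measurement divided by that of the vehicle-treated control group.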

[1] = dose: 50.0 mg/kg/injection, schedule: Q01DX005 (ip), vehicle: saline with Tween-80
[2] = dose: 100.0 mg/kg/injection, schedule: Q01DX005 (ip), vehicle: saline with Tween-80
[3] = dose: 200.0 mg/kg/injection, schedule: Q01DX005 (ip), vehicle: saline with Tween-80
[4] = dose: 50.0 mg/kg/injection, schedule: Q01DX009 (ip), vehicle: Klucel (hydroxypropylcellulose) (HPC)
[5] = dose: 100.0 mg/kg/injection, schedule: Q01DX009 (ip), vehicle: Klucel (hydroxypropylcellulose) (HPC)
[6] = dose: 200.0 mg/kg/injection, schedule: Q01DX009 (ip), vehicle: Klucel (hydroxypropylcellulose) (HPC)
[7] = dose: 100.0 mg/kg/injection, schedule: Q04DX003 (ip), vehicle: saline
[8] = dose: 200.0 mg/kg/injection, schedule: Q04DX003 (ip), vehicle: saline
[9] = dose: 60.0 mg/kg/injection, schedule: Q01DX005 (ip), vehicle: saline with Tween-80
[10] = dose: 120.0 mg/kg/injection, schedule: Q01DX005 (ip), vehicle: saline with Tween-80
[11] = dose: 240.0 mg/kg/injection, schedule: Q01DX005 (ip), vehicle: saline with Tween-80
[12] = dose: 50.0 mg/kg/injection, schedule: Q01DX005 (ip), vehicle: Klucel (hydroxypropylcellulose) (HPC)
[13] = dose: 50.0 mg/kg/injection, schedule: Q01DX009 (ip), vehicle: saline with Tween-80
[14] = dose: 100.0 mg/kg/injection, schedule: Q01DX009 (ip), vehicle: saline with Tween-80
[15] = dose: 200.0 mg/kg/injection, schedule: Q01DX009 (ip), vehicle: saline with Tween-80
[16] = dose: 100.0 mg/kg/injection, schedule: Q01DX005 (ip), vehicle: Klucel (hydroxypropylcellulose) (HPC)
[17] = dose: 12.5 mg/kg/injection, schedule: Q01DX009 (ip), vehicle: saline with Tween-80

Measured: T/C

O=NNc1ccc(SSc2ccc(NN=O)cc2)cc1
inactive: dose: 1.56 mg/kg/injection, schedule: Q01DX009 (ip), vehicle: water 106 % of control | dose: 3.12 mg/kg/injection, schedule: Q01DX009 (ip), vehicle: water 100 % of control and 124 % of control | dose: 6.25 mg/kg/injection, schedule: Q01DX009 (ip), vehicle: water 121 % of control | dose: 12.5 mg/kg/injection, schedule: Q01DX009 (ip), vehicle: water 123 % of control

NC(N)=NCCCC1NC(=O)C(Cc2ccc(O)cc2)NC1=O (stereo not drawn)
inactive: [1] 98 % of control and 93 % of control | [2] 100 % of control | [3] 100 % of control and 101 % of control

NC(=S)c1ccc(Br)cc1
inactive: [4] 97 % of control | [5] 104 % of control

COc1cc(N2C(=O)C(=O)C(C(C)=O)C2=O)c(OC)cc1Cl (stereo not drawn)
inactive: [4] 100 % of control | [5] 99 % of control | [6] 100 % of control

COc1cc2c(OC)c(c1)CCc1cc(OC)c(cc1OC)CC2
inactive: [1] 97 % of control | [2] 97 % of control | [3] 94 % of control

O=C1NC(=O)C(c2ccccc2)(c2ccccc2)N1CCS
inactive: dose: 12.5 mg/kg/injection, schedule: Q04DX003 (ip), vehicle: saline 108 % of control | dose: 25.0 mg/kg/injection, schedule: Q04DX003 (ip), vehicle: Klucel (hydroxypropylcellulose) (HPC) 98 % of control and 108 % of control | dose: 25.0 mg/kg/injection, schedule: Q04DX003 (ip), vehicle: saline 100 % of control | dose: 50.0 mg/kg/injection, schedule: Q04DX003 (ip), vehicle: Klucel (hydroxypropylcellulose) (HPC) 98 % of control and 99 % of control | dose: 50.0 mg/kg/injection, schedule: Q04DX003 (ip), vehicle: saline 104 % of control | dose: 100.0 mg/kg/injection, schedule: Q04DX003 (ip), vehicle: Klucel (hydroxypropylcellulose) (HPC) 97 % of control | [7] 108 % of control | dose: 200.0 mg/kg/injection, schedule: Q04DX003 (ip), vehicle: Klucel (hydroxypropylcellulose) (HPC) 100 % of control and 117 % of control | [8] 94 % of control | dose: 400.0 mg/kg/injection, schedule: Q04DX003 (ip), vehicle: Klucel (hydroxypropylcellulose) (HPC) 106 % of control and 109 % of control

c1ccc2c(c1)N=NN1CCCOC21 (stereo not drawn)
inactive: [9] 100 % of control | [10] 95 % of control | [11] 99 % of control

OCc1ccc(O)c(O)c1
inactive: dose: 50.0 mg/kg/injection, schedule: Q01DX005 (ip), vehicle: saline 116 % of control | dose: 100.0 mg/kg/injection, schedule: Q01DX005 (ip), vehicle: saline 123 % of control | dose: 200.0 mg/kg/injection, schedule: Q01DX005 (ip), vehicle: saline 123 % of control | dose: 400.0 mg/kg/injection, schedule: Q01DX005 (ip), vehicle: saline 120 % of control

CC(C)(C)C(=O)OCn1cc2c(=O)[nH]cnc2n1
inactive: dose: 60.0 mg/kg/injection, schedule: Q01DX005 (ip), vehicle: Klucel (hydroxypropylcellulose) (HPC) 101 % of control | dose: 120.0 mg/kg/injection, schedule: Q01DX005 (ip), vehicle: Klucel (hydroxypropylcellulose) (HPC) 100 % of control | dose: 240.0 mg/kg/injection, schedule: Q01DX005 (ip), vehicle: Klucel (hydroxypropylcellulose) (HPC) 104 % of control

CC(C)(c1cc(Cl)c(OCCO)c(Cl)c1)c1cc(Cl)c(OCCO)c(Cl)c1
inactive: dose: 100.0 mg/kg/injection, schedule: Q04DX003 (ip), vehicle: saline with Tween-80 100 % of control | dose: 200.0 mg/kg/injection, schedule: Q04DX003 (ip), vehicle: saline with Tween-80 100 % of control | dose: 400.0 mg/kg/injection, schedule: Q04DX003 (ip), vehicle: saline with Tween-80 95 % of control

COc1ccc2[nH]c(C)c(CN(C(C)=O)C(C)=O)c(=O)c2c1
inactive: [9] 103 % of control | [10] 112 % of control | [11] 86 % of control

COc1ccc(S(=O)(=O)N/N=C/c2cc(I)cc([N+](=O)[O-])c2O)cc1
inactive: [1] 102 % of control | [2] 100 % of control | [3] 104 % of control

COc1ccc(Cc2c3cc(OC)c(OC)cc3cc[n+]2CC(=O)c2ccc(F)cc2)cc1OC
inactive: dose: 25.0 mg/kg/injection, schedule: Q01DX005 (ip), vehicle: Klucel (hydroxypropylcellulose) (HPC) 108 % of control | [12] 100 % of control

Cc1ccn2cc(CC(=O)O)nc2n1
inactive: [7] 101 % of control | [8] 106 % of control | dose: 400.0 mg/kg/injection, schedule: Q04DX003 (ip), vehicle: saline 105 % of control

CC(/C=C/c1ccccc1)=N\Nc1ccc(Cl)cc1Cl
inactive: [4] 118 % of control | [5] 100 % of control

[O-][n+]1c(Cl)c(Cl)[n+]([O-])c2[nH]c(C(F)(F)F)nc21
inactive: dose: 25.0 mg/kg/injection, schedule: Q01DX005 (ip), vehicle: saline with Tween-80 103 % of control | [1] 96 % of control | [2] 102 % of control | [3] 90 % of control and 96 % of control

CC1=C[C@H]2[C@@]3(O)[C@H](C)[C@@H](OC(=O)/C=C\c4ccccc4)[C@]4(OC(=O)/C=C\c5ccccc5)[C@H]([C@@H]3C=C(COC(=O)/C=C\c3ccccc3)C[C@]2(O)C1=O)C4(C)C
inactive: dose: 0.18 mg/kg/injection, schedule: Q01DX005 (ip), vehicle: saline + alcohol 92 % of control | dose: 0.35 mg/kg/injection, schedule: Q01DX005 (ip), vehicle: saline + alcohol 95 % of control | dose: 0.7 mg/kg/injection, schedule: Q01DX005 (ip), vehicle: saline + alcohol 95 % of control | dose: 1.4 mg/kg/injection, schedule: Q01DX005 (ip), vehicle: saline + alcohol 95 % of control | dose: 2.8 mg/kg/injection, schedule: Q01DX005 (ip), vehicle: saline + alcohol 102 % of control

NC1=NC(c2ccccc2Cl)CC(c2cc3ccccc3o2)=N1 (stereo not drawn)
inactive: dose: 100.0 mg/kg/injection, schedule: Q01DX001 (ip), vehicle: saline with Tween-80 92 % of control | dose: 200.0 mg/kg/injection, schedule: Q01DX001 (ip), vehicle: saline with Tween-80 89 % of control | dose: 400.0 mg/kg/injection, schedule: Q01DX001 (ip), vehicle: saline with Tween-80 100 % of control

Cc1cccc(NC(=O)Nc2cccc(S(N)(=O)=O)c2)c1C
inactive: [13] 104 % of control | [14] 90 % of control | [15] 90 % of control

COc1cc(C2c3cc(O)c(OC)cc3CC3C(=O)OCC32)ccc1O (stereo not drawn)
inactive: [12] 95 % of control | [16] 95 % of control | dose: 200.0 mg/kg/injection, schedule: Q01DX005 (ip), vehicle: Klucel (hydroxypropylcellulose) (HPC) 90 % of control

NC(=O)N/N=C/c1cccs1
inactive: dose: 3.12 mg/kg/injection, schedule: Q01DX009 (ip), vehicle: saline with Tween-80 97 % of control | dose: 6.25 mg/kg/injection, schedule: Q01DX009 (ip), vehicle: saline with Tween-80 97 % of control | [17] 93 % of control

O=S1(=O)CCN(C2CCS(=O)(=O)C2)CC1 (stereo not drawn)
inactive: [4] 90 % of control | [5] 99 % of control | [6] 90 % of control

Cc1ccccc1N1C(=O)CC2(CCCC2)C1=O
inactive: [13] 97 % of control | [14] 113 % of control | [15] 94 % of control

CC1=CC2=C(C=O)C(=O)[C@](C)(O)[C@@H](O)C2=CO1
inactive: [17] 109 % of control | dose: 25.0 mg/kg/injection, schedule: Q01DX009 (ip), vehicle: saline with Tween-80 118 % of control

CC1(C)CCC[C@](C)(O)C2CCC=CC21 (stereo partly drawn)
inactive: dose: 100.0 mg/kg/injection, schedule: Q04DX002 (ip), vehicle: Klucel (hydroxypropylcellulose) (HPC) 106 % of control | dose: 200.0 mg/kg/injection, schedule: Q04DX002 (ip), vehicle: Klucel (hydroxypropylcellulose) (HPC) 104 % of control | dose: 400.0 mg/kg/injection, schedule: Q04DX002 (ip), vehicle: Klucel (hydroxypropylcellulose) (HPC) 114 % of control

CCCCCCCCCCCCCCCCN(C(C)C)S(=O)(=O)c1ccc(Cl)c([N+](=O)[O-])c1
inactive: dose: 50.0 mg/kg/injection, schedule: Q04DX003 (ip), vehicle: saline sonified 90 % of control | dose: 100.0 mg/kg/injection, schedule: Q04DX003 (ip), vehicle: saline sonified 95 % of control | dose: 200.0 mg/kg/injection, schedule: Q04DX003 (ip), vehicle: saline sonified 95 % of control

CC[C@]12C=CCN3CC[C@@]4(c5ccc(OC)cc5N(C)[C@H]4[C@@](O)(C(=O)OC)[C@@H]1OC(C)=O)[C@@H]32
inactive: [12] 98 % of control | [16] 97 % of control
